Measured values as given in article PMC4994518 (Journal of medicinal chemistry, 2010).

Key:
Human recombinant PDE 5A = Human recombinant PDE 5A (Homo sapiens, UniProt O76074); assay: Phosphodiesterase assay; format: biochemical; details: for % PDE 5 inhibition at 10 μM: recombinant human PDE5, 10 μM, duplicate values
[1] = tested on: MDA-MB-231 breast tumor cell line; assay: Growth inhibition of MDA-MB-231 breast tumor cell line; format: cell-based, human; details: for inhibition at 10 µM: Homo sapiens, MDA-MB-231, read-out: % growth inhibition at 10 μM

Structure (SMILES) | % PDE 5 inhibition at 10 μM (Human recombinant PDE 5A) | inhibition at 10 µM [1] [%] | other results
CCN1C(=O)[C@@H]2Cc3c([nH]c4ccccc34)[C@@H](c3ccc(Cl)cc3Cl)N2C1=O [Compound 14, (5R,11aS) 5-(2,4-Dichlorophenyl)-2-ethyl-5,6,11,11a-tetrahydro-1H-imidazo [1′,5′:1,6] pyrido[3,4-b]indole-1,3(2H)-dione] |  |  | selectivity index (Human recombinant PDE 5A; IC50 of PDE11A (cGMP)/IC50 of PDE5A (cGMP)): > 200
COC(=O)[C@H]1Cc2c([nH]c3ccccc23)[C@H](c2ccc(Cl)c(Cl)c2)N1 [Compound 6, (1S,3R)Methyl-1-(3,4-dichlorophenyl)-2,3,4,9-tetrahydro-1H-β-carboline-3-carboxylate] |  |  | IC50 ([1]; read-out: growth inhibition IC50 (μM) and CI at p < 0.05, MDA-MB-231, at least 8 concentrations, quadruple replicates, CI in brackets): < 10 µM
COC(=O)[C@H]1Cc2c([nH]c3ccccc23)[C@H](c2ccc(Cl)cc2Cl)N1C(=O)CCl [Compound 32, (1S,3R)Methyl 1-(2,4-Dichlorophenyl)-2-(2-chloroacetyl)-2,3,4,9-tetrahydro-1H-β-carboline-3-carboxylate] |  | 98 | growth inhibitory potency relative to 31 ([1]; MDA-MB-231): ~10 times
COC(=O)[C@H]1Cc2c([nH]c3ccccc23)[C@@H](c2ccc(Cl)cc2Cl)N1C(=O)CCl [Compound 31, (1R,3R)Methyl 1-(2,4-Dichlorophenyl)-2-(2-chloroacetyl)-2,3,4,9-tetrahydro-1H-β-carboline-3-carboxylate] |  | 98 | 

Continued, in another order:

% PDE 5 inhibition at 10 μM (Human recombinant PDE 5A) | Structure (SMILES) | inhibition at 10 µM [1] [%] | other results
inactive | COC(=O)[C@@H]1Cc2c([nH]c3ccccc23)[C@H](c2c(Cl)cccc2Cl)N1 [Compound 10, (1S,3S)Methyl-1-(2,6-dichlorophenyl)-2,3,4,9-tetrahydro-1H-β-carboline-3-carboxylate] |  | 
inactive | COC(=O)[C@H]1Cc2c([nH]c3ccccc23)[C@@H](c2c(Cl)cccc2Cl)N1 [Compound 9, (1R,3R)Methyl-1-(2,6-dichlorophenyl)-2,3,4,9-tetrahydro-1H-β-carboline-3 carboxylate] |  | 
